Measured values from US7951906B2, “Compounds capable of interacting with a cell-surface fibroblast growth factor receptor” (Enkam Pharmaceuticals A/S, priority 2002, dated 2011).
Positions of bridges follow the written chain, without caps; N, C: chain ends. Chains are numbered I, II in the order given. No end group written: not given here.

Assays:
hippocampal neurons = assay: Neurite outgrowth from hippocampal neurons; format: cell-based, rat; conditions: for stimulation of neurite outgrowth / length of neurites: 24 h, 5 μM F3 module 2; for retained stimulatory effect relative to the entire (non-mutated) FG loop peptide: peptides 50 μM
Description: Dissociated neurons from embryonic rat hippocampus (embryonic day 19), prepared as described (Skladchikova et al., 1999), were grown on Permanox plastic (Nunc) for 24 h at a density of 6000 cells/cm^2, at 37° C., 5% CO2 in Neurobasal medium containing 20 mM Hepes, 100 U/ml penicillin, 100 μg/ml streptomycin, 0.4% BSA supplemented with B27 (Gibco BRL) and the below specified compounds. After 24 h, cells were fixed with paraformaldehyde, stained with Coomassie Brilliant Blue R250 and the length of neurites was measured as described (Skladchikova et al, 1999).

[1] = system: polyclonal antibody raised against the intact FGL-peptide; assay: Competitive ELISA of immunoreactivity with antibody raised against FGL-peptide; format: binding; conditions: rabbit serum
Text: Antibody specifically recognising an epitope comprising SEQ ID NO: 1 (FGL-peptide) were raised in rabbits according the standard procedure (Gill B M, Barbosa J A, Dinh T Q, Garrod S, O'Connor D T: Chromogranin B: isolation from pheochromocytoma, N-terminal sequence, tissue distribution and secretory vesicle processing. Regul Peptides 33:223-35, 1991). Synthetic FGL-peptide was coupled to a carrier protein, KLH (Keyhole Limpets Hemocyanin). The peptide was mixed with Freunds incomplete adjuvant and the mixture was injected into rabbits. 208 μg peptide was used per immunisation (per rabbit).
Antibodies (serum) were tested for specificity by competitive ELISA using a series FGL-peptide truncated variants according to the protocol described in R. J. Jenny, T. L. Messier, L. A. Ouellette, and W. R. Church, Methods Enzymol. 222, 400 (1993). 100% immunoreactivity was ob-served only with the intact FGL-peptide consisting of SEQ ID NO: 1.

FGFR1 Ig modules 2, 3 = molecular target: T1, FGFR1 Ig modules 2, 3 (Mus musculus, UniProt P16092); assay: SPR binding to immobilized FGFR Ig modules 2, 3; conditions: for coefficient of dissociation: immobilized FGFR modules 2, 3
T1 construct: amino acids 249-365 and 141-365 of FGFR (swissprot p16092), respectively; made in house; host or cells: Drosophila S2 cells
T1 sequence (P16092 141-365): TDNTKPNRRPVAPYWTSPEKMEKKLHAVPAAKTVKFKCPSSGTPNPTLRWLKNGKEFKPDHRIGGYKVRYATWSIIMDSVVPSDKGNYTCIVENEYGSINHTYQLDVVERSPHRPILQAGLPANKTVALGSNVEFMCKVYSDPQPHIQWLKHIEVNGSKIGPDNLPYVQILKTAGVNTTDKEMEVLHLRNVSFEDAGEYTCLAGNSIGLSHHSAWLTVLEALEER
Text: The NCAM F3 modules 1, 2 (without expression of exons a, AAG), and FGFR1 Ig modules 2, 3 were produced using rat NCAM cDNA and mouse FGFR1 (IIIC iso-form) cDNA. The F3 module 1 and the combined F3 modules 1, 2 consist of […] (SEQ ID NO:173) and amino acids 507-611 and 507-705 of NCAM (swissprot p13596), respectively. […] The FGFR Ig module 2 consists of […] […] The FGFR Ig module 3 and the combined Ig modules 2, 3 consist of […] (SEQ ID NO:174) and amino acids 249-365 and 141-365 of FGFR (swissprot p16092), respectively. […] All the proteins were purified by affinity chromatography using Ni2^+−NTA resin (Qiagen, USA) and/or ion exchange chromatography and gel filtration. ^15N-labelled F3 module 2 was produced as described (Thomsen et al., 1996). The NCAM Ig modules 1, 2 and 3 (RV and amino acids 20-308 of rat NCAM, swissprot p13596) was produced as described (Soroka et al., 2002).
The flow-rate was 5 μl/min. […] The FGFR Ig modules 2, 3 were immobilized on a sensor chip CM5 using amine coupling kit (Biosensor AB) as follows: 1) the two halves of the chip (designated Fc1 and Fc2) were activated by 20 μl activation solution; 2) the protein was immobilized on Fc1 using 12 μl 20 μg/ml protein in 10 mM sodium phosphate buffer pH 6.0; 3) Fc1 and Fc2 were blocked by 35 μl blocking solution. […] The resulting curve was used for analysis.

human FGFR1 = molecular target: T2, human FGFR1 (Homo sapiens, UniProt P11362); assay: FGFR1 phosphorylation, Assay 1 (TREX-293 cells, StrepII-tagged FGFR1); format: cell-based; conditions: 20 min, 5 μM F3 module, 2.5 μM dendrimeric FG loop peptide
T2 construct: expressed in transfected cells; host or cells: TREX-293 cells (Invitrogen), Flp-In system
T2 sequence (P11362 22-822): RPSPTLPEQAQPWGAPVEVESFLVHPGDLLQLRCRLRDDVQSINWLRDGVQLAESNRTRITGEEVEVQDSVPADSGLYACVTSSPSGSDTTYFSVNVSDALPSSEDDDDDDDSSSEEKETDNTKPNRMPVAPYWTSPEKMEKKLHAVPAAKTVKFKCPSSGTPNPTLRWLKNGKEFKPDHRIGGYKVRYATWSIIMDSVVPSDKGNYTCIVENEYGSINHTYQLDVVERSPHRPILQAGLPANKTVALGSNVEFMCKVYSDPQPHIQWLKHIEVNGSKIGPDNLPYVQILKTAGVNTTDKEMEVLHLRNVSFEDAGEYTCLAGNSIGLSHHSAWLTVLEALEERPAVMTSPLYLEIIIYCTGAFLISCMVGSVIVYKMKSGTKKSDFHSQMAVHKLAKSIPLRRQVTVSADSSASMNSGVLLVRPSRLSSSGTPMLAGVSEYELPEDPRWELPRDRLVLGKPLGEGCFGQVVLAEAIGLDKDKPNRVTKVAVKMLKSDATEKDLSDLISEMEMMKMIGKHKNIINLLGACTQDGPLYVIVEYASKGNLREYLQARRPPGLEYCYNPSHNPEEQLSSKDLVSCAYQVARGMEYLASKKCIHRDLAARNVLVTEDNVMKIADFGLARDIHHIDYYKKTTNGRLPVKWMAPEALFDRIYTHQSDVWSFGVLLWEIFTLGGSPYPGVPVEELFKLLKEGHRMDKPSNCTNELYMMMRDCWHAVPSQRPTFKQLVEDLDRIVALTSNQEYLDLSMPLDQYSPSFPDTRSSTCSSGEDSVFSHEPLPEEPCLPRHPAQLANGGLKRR
Description: Assay 1: TREX-293 cells (Invitrogen) were stably transfected with human FGFR1 having a C-terminal StrepII-tag (IBA biotech), using the Flp-In system (Invitrogen). For the study of phosphorylation: ˜2×10^7 cells were starved overnight before stimulation for 20 min with the specified compounds. Cells were lysed in PBS with 1% NP-40 and phosphatase inhibitors cocktail set II (Calbiochem). The cleared cell lysates were incubated with 50 μl agarose-coupled anti-phosphotyrosine antibodies (4G10-AC, Upstate Biotechnologies) for 3 hrs at 4° C. Care was taken to calibrate the amount of cells employed, so that considerable increases in phosphorylated FGFR could be detected. The bound protein was washed, eluted using 150 mM phenyl phosphate (Sigma), precipitated by 12% trichloroacetic acid, washed in cold acetone and dissolved in SDS-PAGE sample buffer. Immunoblotting was performed using antibodies against the recombinant StrepII-tag (IBA biotech). For immunoprecipitation: ˜1×10^7 cells were transiently transfected with the 180 kDa NCAM isoform or a control vector. Cells were incubated for 24 h and then starved overnight. After lysis, FGFR was purified on a StrepTactin Minicolumn (IBA Biotech) according to the manufacturer's instructions, and analyzed by immunoblotting with polyclonal antibodies against human NCAM.

SEQ ID NO:171: 11-amino acid fragment of SEQ ID NO: 5 (axonal-associated cell adhesion molecule), two amino acids truncated from the C-terminus (VAENSRGKNVA; Axonal-associated cell adhesion molecule [NCBI NP_446331] FGFR binding motif)
stimulation of neurite outgrowth / length of neurites (hippocampal neurons; hippocampal neurons): capable of stimulation of neurite outgrowth
concentration of the peptide at maximal effect (hippocampal neurons; hippocampal neurons, neurite outgrowth): about 0.3 μg/ml

t4: truncated FGL-peptide lacking the three C-terminal amino acids (EVYVVAENQQGK; NCAM Fn III, 2 [Swiss-Prot P13591] FGFR binding motif (variant))
immunoreactivity [1]: 80%

I: EVYVVAENQQGKSKAKK / II: EVYVVAENQQGKSKAK / III: EVYVVAENQQGKSKA / IV: EVYVVAENQQGKSKA (amide I:16-IV:C, I:17-II:C, II:16-III:C (inferred)) [dendrimeric FG loop peptide]
coefficient of dissociation (FGFR1 Ig modules 2, 3): 3.97±2.29×10^−3 s^−1
kon (FGFR1 Ig modules 2, 3; immobilized FGFR modules 2, 3, read-out: coefficient of association): 2070 ± 1.08e+06 M⁻¹ s⁻¹
FGFR phosphorylation compared to the non-stimulated cells (human FGFR1): substantially increase

SEQ ID NO:151: truncated version of the FG loop peptide, residues A^77-K^83 of the NCAM F3 module 2 (AENQQGK; NCAM Fn III, 2 [Swiss-Prot P13591] FGFR binding motif (Variant))
neurite outgrowth in dose-response study (hippocampal neurons; hippocampal neurons, neurite length versus concentration): induced neurite outgrowth with a bell-shaped curve
retained stimulatory effect relative to the entire (non-mutated) FG loop peptide (hippocampal neurons; hippocampal neurons): approximately 50%

dendrimeric EF loop peptide: four peptide sequences of SEQ ID NO: 9 connected to a three-lysine backbone through their C-termini (TIMGLKPETRYAVR; also: four copies linked via C-termini to three-lysine dendrimer backbone)
binding to the immobilized FGFR modules (FGFR1 Ig modules 2, 3): real-time binding

YKK: the FG loop peptide in which Y^74, K^83 and K^85 were substituted with alanine (EVAVVAENQQGASAA)
inhibition of the stimulatory effect of the peptide by ATP (hippocampal neurons; 50 μM peptide, ATP 0.4, 1.0 mM): could no longer be inhibited
stimulation of neurite outgrowth / length of neurites (hippocampal neurons; hippocampal neurons): retained its neuritogenic potency
retained stimulatory effect relative to the entire (non-mutated) FG loop peptide (hippocampal neurons; hippocampal neurons): about 60%

TIMGLKPETRYAVR (FIII,1 domain of NCAM (Swiss-Prot P13591) FGFR binding motif) [EF loop peptide, peptide corresponding to residues T^573-R^586 of the NCAM F3 module 1]
binding to the immobilized FGFR modules (FGFR1 Ig modules 2, 3): cannot be detected
stimulation of neurite outgrowth / length of neurites (hippocampal neurons; hippocampal neurons): stimulate the neurite outgrowth significantly

Cc1c[nH]c(/C=C2\C(=O)Nc3ccccc32)c1CCC(=O)O [SU54402, reference compound]
block of neurite outgrowth stimulation by the EF loop peptide (hippocampal neurons; hippocampal neurons): specifically blocked

peptide derived from FGF2: peptide from a loop region in FGF2 similar to the heptameric NCAM peptide (AMKEDGR; FGF2)
stimulation of neurite outgrowth / length of neurites (hippocampal neurons; hippocampal neurons): to the same extent as the similar NCAM peptide

nonamer V^76-S^84: truncated version of the FG loop peptide, residues V^76-S^84 (VAENQQGKS; NCAM Fn III, 2 [Swiss-Prot P13591] FGFR binding motif (Variant))
retained stimulatory effect relative to the entire (non-mutated) FG loop peptide (hippocampal neurons; hippocampal neurons): approximately 50%

t1: truncated FGL-peptide lacking the three N-terminal amino acids (VVAENQQGKSKA; NCAM Fn III, 2 [Swiss-Prot P13591] FGFR binding motif (variant))
immunoreactivity [1]: 40%

Nc1ncnc2c1ncn2[C@@H]1O[C@H](COP(=O)(O)OP(=O)(O)CP(=O)(O)O)[C@@H](O)[C@H]1O [AMP-PCP, reference compound]
inhibition of the neuritogenic effect induced by the F3 module 2 (hippocampal neurons; 5 μM F3 module, ATP or AMP-PCP 0.4, 1.0 mM): complete inhibition
inhibition of the neuritogenic effect induced by the FG loop peptide (hippocampal neurons; 50 μM peptide, ATP or AMP-PCP 0.4, 1.0 mM): complete inhibition

B1: NCAM F3 modules 1, 2: recombinant protein: AGHHHHHH and amino acids 507-705 of rat NCAM (swissprot p13596) (protein)
chain: AGHHHHHHQADTPSSPSIDRVEPYSSTAQVQFDEPEATGGVPILKYKAEWKSLGEEAWHSKWYDAKEANMEGIVTIMGLKPETRYAVRLAALNGKGLGEISAATEFKTQPVREPSAPKLEGQMGEDGNSIKVNLIKQDDGGSPIRHYLVKYRALASEWKPEIRLPSGSDHVMLKSLDWNAEYEVYVVAENQQGKSKAAHFVFRTSAQ
binding to the immobilized FGFR modules (FGFR1 Ig modules 2, 3): binds
coefficient of dissociation (FGFR1 Ig modules 2, 3): 5.56±0.07×10^−3 s^−1

B2: NCAM Ig modules 1, 2 and 3: control protein: RV and amino acids 20-308 of rat NCAM, swissprot p13596 (protein)
chain: RVLQVDIVPSQGEISVGESKFFLCQVAGDAKDKDISWFSPNGEKLSPNQQRISVVWNDDDSSTLTIYNANIDDAGIYKCVVTAEDGTQSEATVNVKIFQKLMFKNAPTPQEFKEGEDAVIVCDVVSSLPPTIIWKHKGRDVILKKDVRFIVLSNNYLQIRGIKKTDEGTYRCEGRILARGEINFKDIQVIVNVPPTVQARQSIVNATANLGQSVTLVCDADGFPEPTMSWTKDGEPIENEEEDDEKHIFSDDSSELTIRNVDKNDEAEYVCIAENKAGEQDASIHLKVFAK
binding to the immobilized FGFR modules (FGFR1 Ig modules 2, 3): does not bind
